Experimental data published in publication PMC7215089, “Identification of a Conserved Prophenoloxidase Activation Pathway in Cotton Bollworm Helicoverpa armigera” (Frontiers in Immunology, 2020).

Target: T1, PPO / PO (PPO1-PPO2 heterodimer) (Helicoverpa armigera, UniProt A0A290U614+Q2VIY6)
T1 sequence (A0A290U614 1-684): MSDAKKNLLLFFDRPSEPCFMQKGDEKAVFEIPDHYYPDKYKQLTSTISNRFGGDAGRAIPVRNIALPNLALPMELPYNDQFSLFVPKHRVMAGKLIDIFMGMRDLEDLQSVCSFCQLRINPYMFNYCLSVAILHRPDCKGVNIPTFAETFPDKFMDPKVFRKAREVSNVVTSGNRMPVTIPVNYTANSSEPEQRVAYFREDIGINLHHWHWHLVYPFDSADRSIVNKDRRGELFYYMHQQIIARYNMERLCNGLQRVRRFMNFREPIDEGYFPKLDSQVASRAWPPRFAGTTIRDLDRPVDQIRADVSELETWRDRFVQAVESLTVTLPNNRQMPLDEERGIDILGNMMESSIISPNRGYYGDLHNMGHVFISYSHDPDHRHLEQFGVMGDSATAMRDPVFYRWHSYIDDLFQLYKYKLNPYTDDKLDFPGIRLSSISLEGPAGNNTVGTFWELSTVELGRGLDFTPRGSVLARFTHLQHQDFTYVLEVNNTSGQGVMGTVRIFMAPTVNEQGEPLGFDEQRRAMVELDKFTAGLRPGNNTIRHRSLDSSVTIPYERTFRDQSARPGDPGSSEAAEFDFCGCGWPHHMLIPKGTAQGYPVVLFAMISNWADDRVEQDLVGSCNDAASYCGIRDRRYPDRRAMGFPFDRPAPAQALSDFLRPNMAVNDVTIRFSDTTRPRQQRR
T1 sequence (Q2VIY6 1-698): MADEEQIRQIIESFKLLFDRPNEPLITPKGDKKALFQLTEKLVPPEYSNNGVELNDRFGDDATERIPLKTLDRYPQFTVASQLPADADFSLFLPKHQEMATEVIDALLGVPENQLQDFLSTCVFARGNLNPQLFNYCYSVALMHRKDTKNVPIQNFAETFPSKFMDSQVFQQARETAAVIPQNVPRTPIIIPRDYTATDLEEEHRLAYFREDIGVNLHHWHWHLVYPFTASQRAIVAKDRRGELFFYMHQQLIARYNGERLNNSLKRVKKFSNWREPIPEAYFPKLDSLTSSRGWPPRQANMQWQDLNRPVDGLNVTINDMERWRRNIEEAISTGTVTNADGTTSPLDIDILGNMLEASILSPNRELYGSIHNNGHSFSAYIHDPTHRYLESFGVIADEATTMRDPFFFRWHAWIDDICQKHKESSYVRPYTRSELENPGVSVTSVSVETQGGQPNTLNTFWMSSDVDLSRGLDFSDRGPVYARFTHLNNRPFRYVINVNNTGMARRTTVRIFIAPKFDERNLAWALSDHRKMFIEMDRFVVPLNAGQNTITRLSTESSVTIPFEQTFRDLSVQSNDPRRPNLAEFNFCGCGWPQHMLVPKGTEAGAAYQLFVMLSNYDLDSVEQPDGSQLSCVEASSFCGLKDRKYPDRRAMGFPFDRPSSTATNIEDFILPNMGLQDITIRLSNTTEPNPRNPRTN
Experiment: phenoloxidase assay, dopamine chrome formation
Type: biochemical
Details: PPO activated by CPC

NCCc1ccc(O)c(O)c1 [dopamine]
phenoloxidase assay, dopamine chrome formation: production of dopamine chrome (or dopachrome) from dopamine (or dopa)
